Key:
speedwell = assay: Test D postemergence; format: in vivo, Veronica persica; conditions: scale 0 to 100
Source text: (§1) Seeds of plant species selected from bluegrass (annual bluegrass, Poa annua), blackgrass (Alopecurus myosuroides), canarygrass (Phalaris minor), chickweed (common chickweed, Stellaria media), galium (catchweed bedstraw, Galium aparine), bromegrass, down (downy bromegrass, Bromus tectorum), Russian thistle (Salsola kali), field poppy (Papaver rhoeas), field violet (Viola arvensis), foxtail, green (green foxtail, Setaria viridis), deadnettle (henbit deadnettle, Lamium amplexicaule), ryegrass, Ital. (Italian ryegrass, Lolium multiflorum), kochia (Kochia scoparia), lambsquarters (Chenopodium album), oilseed rape (Brassica napus), pigweed (Amaranthus retroflexus), chamomile (scentless chamomile, Matricaria inodora), speedwell (bird's-eye speedwell, Veronica persica), barley, spring (spring barley, Hordeum vulgare), wheat, spring (spring wheat, Triticum aestivum), buckwheat, wild (wild buckwheat, Polygonum convolvulus), wild mustard (Sinapis arvensis), oat, wild (wild oat, Avena fatua), radish, wild (wild radish, Raphanus raphanistrum), […]), barley, winter (winter barley, Hordeum vulgare), and wheat, winter (winter wheat, Triticum aestivum) were planted into a silt loam soil and treated preemergence with test chemicals formulated in a non-phytotoxic solvent mixture which included a surfactant. At the same time, these species were planted in pots containing Sunshine Redi-Earth® planting medium comprising spaghnum peat moss, vermiculite, starter nutrients and dolomitic limestone and treated with postemergence applications of the test chemicals formulated in the same manner. Plants ranged in height from 2 to 18 cm (1- to 4-leaf stage). Treated plants and controls were maintained in a controlled growth environment for 14 to 21 d after which time all species were compared to controls and visually evaluated. […] A dash (-) response means no test result.

pigweed = assay: Test D preemergence; format: in vivo, Amaranthus retroflexus; conditions: for Plant response rating: Pigweed: scale 0 to 100
Source text: as §1

wild mustard [1] = assay: Test D postemergence; format: in vivo, Sinapis arvensis; conditions: scale 0 to 100
Source text: as §1

velvetleaf = assay: Test C preemergence; format: in vivo, Abutilon theophrasti; conditions: for Velvetleaf plant response rating (0 to 100): Preemergence, visual rating after 13 to 15 d
Source text: (§2) Seeds of plant species selected from blackgrass (Alopecurus myosuroides), ryegrass, Italian (Italian ryegrass, Lolium multiflorum), wheat (winter wheat, Triticum aestivum), galium (catchweed bedstraw, Galium aparine), corn (Zea mays), crabgrass, large (large crabgrass, Digitaria sanguinalis), foxtail, giant, (giant foxtail, Setaria faberii), johnsongrass (Sorghum halepense), lambsquarters (Chenopodium album), morningglory (Ipomoea coccinea), nutsedge, yellow (yellow nutsedge, Cyperus esculentus), pigweed (Amaranthus retroflexus), ragweed (common ragweed, Ambrosia elatior), soybean (Glycine max), barnyardgrass (Echinochloa crus-galli), oilseed rape (Brassica napus), waterhemp (common waterhemp, Amaranthus rudis), and velvetleaf (Abutilon theophrasti) were planted into a blend of loam soil and sand and treated preemergence with test chemicals formulated in a non-phytotoxic solvent mixture which included a surfactant. At the same time, plants selected from these crop and weed species and also chickweed (common chickweed, Stellaria media), oat, wild (wild oat, Avena fatua), and kochia (Kochia scoparia), were planted in pots containing Sunshine Redi-Earth® planting medium comprising spaghnum peat moss, vermiculite, starter nutrients and dolomitic limestone and treated with postemergence applications of test chemicals formulated in the same manner. Plants ranged in height from 2 to 18 cm (1- to 4-leaf stage) for postemergence treatments. […] A dash (-) response means no test result.

bromegrass, down [2] = assay: Test D preemergence; format: in vivo, Bromus tectorum; conditions: for Plant response rating: Bromegrass, Down: scale 0 to 100
Source text: as §1

bromegrass, down [3] = assay: Test D postemergence; format: in vivo, Bromus tectorum; conditions: scale 0 to 100
Source text: as §1

barley, spring = assay: Test D preemergence; format: in vivo, Hordeum vulgare; conditions: for Plant response rating: Barley, Spring: scale 0 to 100
Source text: as §1

barley, winter = assay: Test D preemergence; format: in vivo, Hordeum vulgare; conditions: for Plant response rating: Barley, Winter: scale 0 to 100
Source text: as §1

lambsquarters = assay: Test C preemergence; format: in vivo, Chenopodium album; conditions: for Plant response rating (scale of 0 to 100 where 0 is no effect and 100 is complete control): Lambsquarters, preemergence; for Lambsquarters plant response rating (0 to 100): Preemergence, visual rating after 13 to 15 d
Source text: as §2

morningglory = assay: Test C preemergence; format: in vivo, Ipomoea coccinea; conditions: for Plant response rating (scale of 0 to 100 where 0 is no effect and 100 is complete control): Morningglory, preemergence; for Morningglory plant response rating (0 to 100): Preemergence, visual rating after 13 to 15 d
Source text: as §2

wild mustard [4] = assay: Test D preemergence; format: in vivo, Sinapis arvensis; conditions: for Plant response rating: Mustard, Wild: scale 0 to 100
Source text: as §1

chamomile = assay: Test D postemergence; format: in vivo, Matricaria inodora; conditions: scale 0 to 100
Source text: as §1

oat, wild = assay: Test D postemergence; format: in vivo, Avena fatua; conditions: scale 0 to 100
Source text: as §1

[5] = 16 g ai/ha, 0 is no effect, 100 is complete control

## CCOc1nc(-c2ccccc2)nn1Cc1ccnc(C(F)(F)F)c1 [Compound 27]
speedwell; 16 g ai/ha
  Plant response rating: Speedwell: 75
speedwell; 31 g ai/ha
  Plant response rating: Speedwell: 85
speedwell; 62 g ai/ha
  Plant response rating: Speedwell: 95
speedwell; 125 g ai/ha
  Plant response rating: Speedwell: 95
pigweed; [5]
  Plant response rating (0 to 100), Pigweed: 100
pigweed; 62 g ai/ha
  Plant response rating: Pigweed: 100
pigweed; 125 g ai/ha
  Plant response rating: Pigweed: 100
Wild mustard [1]; 16 g ai/ha
  Plant response rating: Mustard, Wild: 80
Wild mustard [1]; 31 g ai/ha
  Plant response rating: Mustard, Wild: 100
Wild mustard [1]; 62 g ai/ha
  Plant response rating: Mustard, Wild: 100
Wild mustard [1]; 125 g ai/ha
  Plant response rating: Mustard, Wild: 100
velvetleaf; 31 g ai/ha
  Velvetleaf plant response rating (0 to 100): 10
velvetleaf; 62 g ai/ha
  Velvetleaf plant response rating (0 to 100): 70
velvetleaf; Velvetleaf, preemergence, 250 g ai/ha
  Plant response rating (scale of 0 to 100 where 0 is no effect and 100 is complete control): 100
bromegrass, down [2]; [5]
  Plant response rating (0 to 100), Bromegrass, Down: 0
bromegrass, down [2]; 31 g ai/ha
  Plant response rating: Bromegrass, Down: 20
bromegrass, down [2]; 62 g ai/ha
  Plant response rating: Bromegrass, Down: 65
bromegrass, down [2]; 125 g ai/ha
  Plant response rating: Bromegrass, Down: 70
bromegrass, down [3]; 16 g ai/ha
  Plant response rating: Bromegrass, Down: 25
bromegrass, down [3]; 31 g ai/ha
  Plant response rating: Bromegrass, Down: 30
bromegrass, down [3]; 62 g ai/ha
  Plant response rating: Bromegrass, Down: 50
bromegrass, down [3]; 125 g ai/ha
  Plant response rating: Bromegrass, Down: 65
barley, spring; [5]
  Plant response rating (0 to 100), Barley, Spring: 25
barley, spring; 31 g ai/ha
  Plant response rating: Barley, Spring: 25
barley, spring; 62 g ai/ha
  Plant response rating: Barley, Spring: 35
barley, spring; 125 g ai/ha
  Plant response rating: Barley, Spring: 35
barley, winter; [5]
  Plant response rating (0 to 100), Barley, Winter: 15
barley, winter; 31 g ai/ha
  Plant response rating: Barley, Winter: 25
barley, winter; 62 g ai/ha
  Plant response rating: Barley, Winter: 30
barley, winter; 125 g ai/ha
  Plant response rating: Barley, Winter: 35
lambsquarters; 125 g ai/ha
  Plant response rating (scale of 0 to 100 where 0 is no effect and 100 is complete control): 98
lambsquarters; 250 g ai/ha
  Plant response rating (scale of 0 to 100 where 0 is no effect and 100 is complete control): 100
lambsquarters; 31 g ai/ha
  Lambsquarters plant response rating (0 to 100): 90
lambsquarters; 62 g ai/ha
  Lambsquarters plant response rating (0 to 100): 98
morningglory; 125 g ai/ha
  Plant response rating (scale of 0 to 100 where 0 is no effect and 100 is complete control): 100
morningglory; 250 g ai/ha
  Plant response rating (scale of 0 to 100 where 0 is no effect and 100 is complete control): 95
morningglory; 31 g ai/ha
  Morningglory plant response rating (0 to 100): 20
morningglory; 62 g ai/ha
  Morningglory plant response rating (0 to 100): 80
Wild mustard [4]; [5]
  Plant response rating (0 to 100), Mustard, Wild: 80
Wild mustard [4]; 62 g ai/ha
  Plant response rating: Mustard, Wild: 100
Wild mustard [4]; 125 g ai/ha
  Plant response rating: Mustard, Wild: 100
chamomile; 16 g ai/ha
  Plant response rating: Chamomile: 15
chamomile; 31 g ai/ha
  Plant response rating: Chamomile: 15
chamomile; 62 g ai/ha
  Plant response rating: Chamomile: 20
chamomile; 125 g ai/ha
  Plant response rating: Chamomile: 35
oat, wild; 16 g ai/ha
  Plant response rating: Oat, Wild: 35
oat, wild; 31 g ai/ha
  Plant response rating: Oat, Wild: 45
oat, wild; 62 g ai/ha
  Plant response rating: Oat, Wild: 50
oat, wild; 125 g ai/ha
  Plant response rating: Oat, Wild: 60
